Laboratory results as given in patent US20210181180A1, “METHOD FOR IDENTIFYING MALODOUR COUNTERACTANTS” (TAKASAGO INTERNATIONAL CORPORATION, priority 2016, published 2021).

Target: T1, OR4E2 (Homo sapiens, UniProt Q8NGC2, Q234R/V118M)
T1 construct: expressed in transfected cells; host or cells: HEK293T cells expressing hRTP1s, transiently transfected with pcDNA5-OR4E2 and pNL(NlucP/CRE/Hygro)
T1 sequence (Q8NGC2 1-313 V118M/Q234R): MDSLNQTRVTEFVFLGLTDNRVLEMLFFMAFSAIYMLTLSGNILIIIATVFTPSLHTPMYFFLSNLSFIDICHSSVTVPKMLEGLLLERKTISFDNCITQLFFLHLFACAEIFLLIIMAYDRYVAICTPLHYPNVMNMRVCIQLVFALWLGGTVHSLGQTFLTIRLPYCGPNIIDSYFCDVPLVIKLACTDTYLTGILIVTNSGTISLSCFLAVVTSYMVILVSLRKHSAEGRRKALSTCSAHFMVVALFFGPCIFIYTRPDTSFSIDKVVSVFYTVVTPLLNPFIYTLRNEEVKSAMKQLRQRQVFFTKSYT
Experiment: OR4E2 CRE-NanoLuc luciferase reporter assay in transiently transfected HEK293T cells
Format: cell-based
Conditions: for response of OR4E2 to increasing concentrations of sulphur odorant (OR4E2 activation): seven concentrations 3-300 μM, 4 hours stimulation, luciferase activity, FIGS. 1A and 1B
Protocol: The experiments were performed using HEK293T cells (available e.g. from GE Healthcare) […] expressing the auxiliary protein hRTP1s, essential for efficient receptor trafficking to the plasma membrane (NPL 10, NPL 11; and NPL 12). The cell line was maintained in Dulbecco's modified Eagle Medium (DMEM, Euroclone) supplemented with 10% FBS (Fetal Bovine Serum, Euroclone cat. ECS0180L), 1% Penicillin/Streptomycin (Euroclone cat. B3001D), 50 μg/mL G418, […], and 10 μg/mL Zeocin.
The cDNA for OR4E2 was generated by custom gene synthesis (LifeTechnologies). The receptor DNA was then subcloned in frame 3′ from a transmembrane, localization epitope into a pcDNA5 expression vector (NPL 13). The correct identity of the receptor was checked by automated sequencing.
All sulphur odorants were prepared as 100 mM stock solutions using DMSO as a solvent and stored at −20″C. Copper(II) sulfate was prepared as an aqueous 30 mM stock solution. […]
The cDNA for the OR4E2 receptor was co-transfected with pNL(NlucP/CRE/Hygro) (Promega). […] The enzyme is about 100-fold brighter than either firefly (Photinus pyralis) or Renilla reniformis luciferase using a novel substrate, furimazine, to produce high intensity, glow-type luminescence. […]
24 hours post-transfection the medium was removed from the transfected cells and 30 μL of Tyrode's buffer containing the diluted sulphur odorant were added over 4 hours at 37° C. The cells were then transferred into an automated fluorometric imaging plate reader (FLIPR Tetra (registered trademark), Molecular Devices). […]
The data obtained from different well replicates (n=4) were analysed with Excel, ScreenWorks, and SigmaPiot 11, The responses of the receptor to the sulphur odorants were divided by the mean responses of the receptor towards Tyrode's buffer (fold of change: FOC). The mean and standard deviation of the resulting FOC values were calculated and plotted in vertical bar charts or concentration-response curves fitted by the SigmaPlot 11 software. […]

Row | SMILES | response of OR4E2 to increasing concentrations of sulphur odorant (OR4E2 activation) | OR4E2 activator (used at 300 μM as activating sulphur odorant in Example 2)
1 | C=CCSSSCC=C [diallyl trisulfide] | positive effect | –
2 | CC(C)(S)CCO [3-mercapto-3-methylbutanol] | positive effect | –
3 | CSCSC [2,4-dithiapentane] | – | OR4E2 activator
